Laboratory results taken from patent US12344597B2, “Alkoxy-substituted pyridinyl derivatives as LPA1 receptor antagonists and their use in the treatment of fibrosis” (IDORSIA PHARMACEUTICALS LTD, priority 2018, dated 2025).

These compounds were tested against human LPA1 receptor (Homo sapiens (Human), UniProt Q92633) (assay: Beta-arrestin recruitment assay to determine IC50 values for human LPAR1). Conditions: antagonist mode, Tango EDG2-bla U2OS cells, LPA 18:1 500 nM final.
Assay type: cell-based
Summary of the method: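 Antagonist IC50 = concentration giving 50% inhibition of maximal LPA response. Read-out is beta-lactamase reporter activity after arrestin-protease recruitment in U2OS cells bearing LPA1-TEV-Gal4-VP16 construct; cells pre-incubated 20 h, 37 °C, 5% CO2.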

Sequence of human LPA1 receptor (Q92633 whole entry): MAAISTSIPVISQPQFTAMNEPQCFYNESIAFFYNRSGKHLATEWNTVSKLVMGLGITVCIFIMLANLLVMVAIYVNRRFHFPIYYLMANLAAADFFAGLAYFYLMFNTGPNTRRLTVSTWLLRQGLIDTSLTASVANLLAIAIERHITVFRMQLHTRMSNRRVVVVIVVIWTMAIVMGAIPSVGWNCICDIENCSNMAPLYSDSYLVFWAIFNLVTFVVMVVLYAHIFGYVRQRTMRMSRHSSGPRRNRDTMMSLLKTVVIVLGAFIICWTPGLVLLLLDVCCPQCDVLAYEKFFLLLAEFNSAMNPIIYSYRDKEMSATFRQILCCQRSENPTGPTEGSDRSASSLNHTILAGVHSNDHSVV

In order of falling IC50:
1. COc1cc(Br)cnc1NC(=O)C1(c2ccccc2C(C)C)CNC1 [Ex 71, N-(5-bromo-3-methoxypyridin-2-yl)-3-(2-isopropylphenyl)azetidine-3-carboxamide]  0.564 µM
2. Cc1ccc(NC(=O)C2(c3ccccc3C(C)C)CN(S(=O)(=O)c3[nH]ncc3C(=O)O)C2)c(OC(F)F)n1 [Ex 13-25, 5-((3-((2-(difluoromethoxy)-6-methylpyridin-3-yl)carbamoyl)-3-(2-isopropylphenyl)azetidin-1-yl)sulfonyl)-1H-pyrazole-4-carboxylic acid]  0.4 µM
3. Cc1ccc(NC(=O)C2(c3ccccc3C(C)C)CN(CCN(C)CC(=O)O)C2)c(OC(F)F)n1 [Ex 11-82, N-(2-(3-((2-(difluoromethoxy)-6-methylpyridin-3-yl)carbamoyl)-3-(2-isopropylphenyl)azetidin-1-yl)ethyl)-N-methylglycine]  0.193 µM
4. COC(=O)C(C)(C)OC(=O)N1CC(C(=O)Nc2ccc(C)nc2OC(F)F)(c2ccccc2C(C)C)C1 [Ex 14-6, 1-methoxy-2-methyl-1-oxopropan-2-yl 3-((2-(difluoromethoxy)-6-methylpyridin-3-yl)carbamoyl)-3-(2-isopropylphenyl)azetidine-1-carboxylate]  0.143 µM
5. COC(=O)c1ccc(CN2CC(C(=O)Nc3ccc(C)nc3OC(F)F)(c3ccccc3C(C)C)C2)cn1 [Ex 11-52, methyl 5-((3-((2-(difluoromethoxy)-6-methylpyridin-3-yl)carbamoyl)-3-(2-isopropylphenyl)azetidin-1-yl)methyl)picolinate]  0.079 µM
6. Cc1ccc(NC(=O)C2(c3ccccc3C(C)C)CN(C(=O)[C@@H](N)CO)C2)c(OC(F)F)n1 [Ex 12-40, 1-(L-seryl)-N-(2-(difluoromethoxy)-6-methylpyridin-3-yl)-3-(2-isopropylphenyl)azetidine-3-carboxamide]  0.06 µM
7. Cc1ccc(NC(=O)C2(c3ccccc3C(C)C)CN(C(=O)COCCOCC(=O)OCc3ccccc3)C2)c(OC(F)F)n1 [Ex 12-106, benzyl 2-(2-(2-(3-((2-(difluoromethoxy)-6-methylpyridin-3-yl)carbamoyl)-3-(2-isopropylphenyl)azetidin-1-yl)-2-oxoethoxy)ethoxy)acetate]  0.059 µM
8. CCOC(=O)C1(C(=O)N2CC(C(=O)Nc3ccc(C)nc3OC(F)F)(c3ccccc3C(C)C)C2)CNC1 [Ex 12-113, ethyl 3-(3-((2-(difluoromethoxy)-6-methylpyridin-3-yl)carbamoyl)-3-(2-isopropylphenyl)azetidine-1-carbonyl)azetidine-3-carboxylate]  0.053 µM
9. Cc1cc(Cl)nc(N2CC(C(=O)Nc3ccc(C)nc3OC(F)F)(c3ccccc3C(C)C)C2)n1 [Ex 18-26, 1-(4-chloro-6-methylpyrimidin-2-yl)-N-(2-(difluoromethoxy)-6-methylpyridin-3-yl)-3-(2-isopropylphenyl)azetidine-3-carboxamide]  0.048 µM
10. CNC[C@H](O)CN1CC(C(=O)Nc2ccc(C)nc2OC(F)F)(c2ccccc2C(C)C)C1 [Ex 11-84, (S)-N-(2-(difluoromethoxy)-6-methylpyridin-3-yl)-1-(2-hydroxy-3-(methylamino)propyl)-3-(2-isopropylphenyl)azetidine-3-carboxamide]  0.045 µM
11. CONC(=O)CC(=O)N1CC(C(=O)Nc2ccc(C)nc2OC(F)F)(c2ccccc2C(C)C)C1 [Ex 12-125, N-(2-(difluoromethoxy)-6-methylpyridin-3-yl)-3-(2-isopropylphenyl)-1-(3-(methoxyamino)-3-oxopropanoyl)azetidine-3-carboxamide]  0.035 µM
12. Cc1ccc(NC(=O)C2(c3c(C)cccc3C(C)C)CNC2)c(OC(F)F)n1 [Ex 33, N-(2-(difluoromethoxy)-6-methylpyridin-3-yl)-3-(2-isopropyl-6-methylphenyl)azetidine-3-carboxamide]  0.033 µM
13. CCOC(=O)COCCN1CC(C(=O)Nc2ccc(C)nc2OC(F)F)(c2ccccc2C(C)C)C1 [Ex 11-74, ethyl 2-(2-(3-((2-(difluoromethoxy)-6-methylpyridin-3-yl)carbamoyl)-3-(2-isopropylphenyl)azetidin-1-yl)ethoxy)acetate]  0.028 µM
14. Cc1ccc(NC(=O)C2(c3ccccc3C(C)C)CCN(C(=O)C[C@H](O)C(=O)O)CC2)c(OC(F)F)n1 [Ex 12-37, (S)-4-(4-((2-(difluoromethoxy)-6-methylpyridin-3-yl)carbamoyl)-4-(2-isopropylphenyl)piperidin-1-yl)-2-hydroxy-4-oxobutanoic acid]  0.022 µM
15. Cc1ccc(NC(=O)C2(c3ccccc3C(C)C)CCN(C[C@@H](O)CO)CC2)c(OC(F)F)n1 [Ex 11-19, (R)-N-(2-(difluoromethoxy)-6-methylpyridin-3-yl)-1-(2,3-dihydroxypropyl)-4-(2-isopropylphenyl)piperidine-4-carboxamide]  0.014 µM
16. Cc1ccc(NC(=O)C2(c3ccccc3C(C)C)CN(S(=O)(=O)CCC(=O)NO)C2)c(OC(F)F)n1 [Ex 13-29, N-(2-(difluoromethoxy)-6-methylpyridin-3-yl)-1-((3-(hydroxyamino)-3-oxopropyl)sulfonyl)-3-(2-isopropylphenyl)azetidine-3-carboxamide]  0.01 µM
17. CC(=O)N1CC(C(=O)Nc2ccc(C)nc2OC(F)F)(c2ccccc2C(C)C)C1 [Ex 12-2, 1-acetyl-N-(2-(difluoromethoxy)-6-methylpyridin-3-yl)-3-(2-isopropylphenyl)azetidine-3-carboxamide]  0.01 µM
18. Cc1ccc(NC(=O)C2(c3ccccc3C(C)C)CN(Cc3ccno3)C2)c(OC(F)F)n1 [Ex 11-36, N-(2-(difluoromethoxy)-6-methylpyridin-3-yl)-3-(2-isopropylphenyl)-1-(isoxazol-5-ylmethyl)azetidine-3-carboxamide]  0.009 µM
19. Cc1ccc(NC(=O)C2(c3ccccc3C(C)C)CN(C(=O)NCCC(C)(C)C(=O)O)C2)c(OC(F)F)n1 [Ex 17-19, 4-(3-((2-(difluoromethoxy)-6-methylpyridin-3-yl)carbamoyl)-3-(2-isopropylphenyl)azetidine-1-carboxamido)-2,2-dimethylbutanoic acid]  0.007 µM
20. Cc1ccc(NC(=O)C2(c3ccccc3C(C)C)CCN(S(=O)(=O)CCC(=O)O)CC2)c(OC(F)F)n1 [Ex 13-8, 3-((4-((2-(difluoromethoxy)-6-methylpyridin-3-yl)carbamoyl)-4-(2-isopropylphenyl)piperidin-1-yl)sulfonyl)propanoic acid]  0.007 µM
21. Cc1ccc(NC(=O)C2(c3ccccc3C(C)C)CN(C(=O)C(F)(F)CC(=O)O)C2)c(OC(F)F)n1 [Ex 12-115, 4-(3-((2-(difluoromethoxy)-6-methylpyridin-3-yl)carbamoyl)-3-(2-isopropylphenyl)azetidin-1-yl)-3,3-difluoro-4-oxobutanoic acid]  0.007 µM
22. COC(=O)[C@H](C)NC(=O)N1CC(C(=O)Nc2ccc(C)nc2OC(F)F)(c2ccccc2C(C)C)C1 [Ex 17-8, methyl (3-((2-(difluoromethoxy)-6-methylpyridin-3-yl)carbamoyl)-3-(2-isopropylphenyl)azetidine-1-carbonyl)-L-alaninate]  0.004 µM
23. Cc1ccc(NC(=O)C2(c3ccccc3C(C)C)CN(c3ncncc3F)C2)c(OC(F)F)n1 [Ex 18-20, N-(2-(difluoromethoxy)-6-methylpyridin-3-yl)-1-(5-fluoropyrimidin-4-yl)-3-(2-isopropylphenyl)azetidine-3-carboxamide]  0.002 µM
